From US12617797B2, “Substituted pyrazolo [1,5-a]pyrimidines having multimodal activity against pain” (ESTEVE PHARMACEUTICALS, S.A., priority 2020, dated 2026)

Key:
[1] = target: Human α2δ-1 subunit of Cav2.2 calcium channel (Homo sapiens, UniProt P54289); experiment: Human α2δ-1 subunit of Cav2.2 calcium channel assay ([3H]-gabapentin binding); settings: binding to the α2δ-1 subunit of voltage-gated calcium channels expressed as Ki; + also covers inhibition between 1% and 50%
How it was run: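 Displacement of 15 nM [3H]-gabapentin from human α2δ-1-enriched membranes (Hepes-KOH 10 mM, pH 7.4; 27 °C, 60 min) read by filter binding and radioactivity counting. Values are single-point % inhibition (1 or 10 μM) or five-point Ki; 10 μM pregabalin sets NSB.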

Human σ1 receptor = target: T1, Human σ1 receptor (Homo sapiens, UniProt Q99720); experiment: Human σ1 receptor radioligand assay ([3H](+)-pentazocine binding, transfected HEK-293 membranes); settings: binding to σ1 receptor expressed as Ki; + also covers inhibition between 1% and 50%; read-out: σ-1 binding
T1 construct: expressed in transfected cells; host or cells: HEK-293
T1 sequence (Q99720 whole entry): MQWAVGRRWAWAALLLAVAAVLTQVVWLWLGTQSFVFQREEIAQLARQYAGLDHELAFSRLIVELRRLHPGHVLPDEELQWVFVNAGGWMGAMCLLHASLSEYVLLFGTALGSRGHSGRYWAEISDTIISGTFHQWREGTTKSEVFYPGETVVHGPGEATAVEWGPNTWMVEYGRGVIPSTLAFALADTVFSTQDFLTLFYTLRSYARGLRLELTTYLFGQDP
How it was run: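 Ki was derived from five test concentrations, or % inhibition was measured at a single 1 or 10 μM dose, against 5 nM [3H](+)-pentazocine. Incubation was 120 min at 37° C in 50 mM Tris-HCl pH 8 with 7 μg HEK-293 membranes, and 10 μM haloperidol set non-specific binding. Bound radioactivity was counted after filtration.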

Chain of Human α2δ-1 subunit of Cav2.2 calcium channel (P54289 25-1103): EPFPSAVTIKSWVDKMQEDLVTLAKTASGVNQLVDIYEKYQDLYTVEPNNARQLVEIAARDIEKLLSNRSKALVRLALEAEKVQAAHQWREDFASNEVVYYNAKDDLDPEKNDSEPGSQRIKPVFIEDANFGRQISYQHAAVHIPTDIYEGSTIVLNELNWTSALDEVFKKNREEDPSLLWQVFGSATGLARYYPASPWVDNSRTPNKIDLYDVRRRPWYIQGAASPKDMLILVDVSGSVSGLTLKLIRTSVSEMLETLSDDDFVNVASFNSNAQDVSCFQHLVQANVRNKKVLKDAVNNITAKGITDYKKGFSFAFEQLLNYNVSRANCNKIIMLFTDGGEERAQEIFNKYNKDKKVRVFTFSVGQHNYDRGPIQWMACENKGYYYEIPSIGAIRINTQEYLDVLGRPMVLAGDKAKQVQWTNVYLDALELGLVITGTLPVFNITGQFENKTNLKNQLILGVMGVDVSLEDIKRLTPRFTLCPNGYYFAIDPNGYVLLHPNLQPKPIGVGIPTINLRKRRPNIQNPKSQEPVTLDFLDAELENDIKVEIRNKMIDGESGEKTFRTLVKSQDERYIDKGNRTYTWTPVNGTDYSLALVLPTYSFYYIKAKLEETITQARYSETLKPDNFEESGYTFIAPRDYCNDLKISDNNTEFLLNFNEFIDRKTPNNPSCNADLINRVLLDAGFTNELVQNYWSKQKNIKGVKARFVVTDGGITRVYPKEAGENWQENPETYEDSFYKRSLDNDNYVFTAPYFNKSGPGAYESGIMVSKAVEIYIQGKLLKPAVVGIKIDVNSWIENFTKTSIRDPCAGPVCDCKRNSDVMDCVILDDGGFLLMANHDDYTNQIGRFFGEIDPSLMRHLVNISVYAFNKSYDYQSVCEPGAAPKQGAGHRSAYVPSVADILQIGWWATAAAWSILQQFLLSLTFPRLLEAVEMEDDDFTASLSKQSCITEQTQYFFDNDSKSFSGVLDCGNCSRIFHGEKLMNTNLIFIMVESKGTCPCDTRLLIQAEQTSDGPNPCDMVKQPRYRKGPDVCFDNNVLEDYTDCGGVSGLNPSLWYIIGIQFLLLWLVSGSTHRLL

Row | Structure (SMILES) | Ki [1] [nM] | Ki (Human σ1 receptor) [nM]
1 | Cc1nnc(-c2cccc(-c3c(C)nn4c(C5CCCN(Cc6ccccc6)C5)ccnc34)c2)o1 (stereo not drawn) [Example 56, 2-(3-(7-(1-Benzylpiperidin-3-yl)-2-methylpyrazolo[1,5-a]pyrimidin-3-yl)phenyl)-5-methyl-1,3,4-oxadiazole] | 500 to 5000 | > 1000
2 | Cc1nn2c([C@@H]3CCCN(Cc4ccc(Cl)cc4)C3)ccnc2c1CNC[C@H]1CCOC1 [Example 202, 1-(7-((R)-1-(4-chlorobenzyl)piperidin-3-yl)-2-methylpyrazolo[1,5-a]pyrimidin-3-yl)-N—(((R)-tetrahydrofuran-3-yl)methyl)methanamine] | < 500 | < 500
3 | Cc1nn2c(C3CCCN(Cc4ccc(Cl)cc4)C3)ccnc2c1CNCC1(F)CCOCC1 (stereo not drawn) [Example 177, 1-(7-(1-(4-Chlorobenzyl)piperidin-3-yl)-2-methylpyrazolo[1,5-a]pyrimidin-3-yl)-N-((4-fluorotetrahydro-2H-pyran-4-yl)methyl)methanamine] | 500 to 5000 | < 500
4 | Cc1nn2c(C3CCCN(Cc4ccccc4)C3)ccnc2c1-c1ccnc(F)c1 (stereo not drawn) [Example 50, 7-(1-Benzylpiperidin-3-yl)-3-(2-fluoropyridin-4-yl)-2-methylpyrazolo[1,5-a]pyrimidine] | 500 to 5000 | > 1000
5 | Cc1nn2c(C3CCCN(Cc4ccccc4)C3)ccnc2c1-c1ccc(N(C)C)cc1 (stereo not drawn) [Example 47, 4-(7-(1-Benzylpiperidin-3-yl)-2-methylpyrazolo[1,5-a]pyrimidin-3-yl)-N,N-dimethylaniline] | > 5000 | > 1000
6 | Cc1nn2c(C3CCCN(Cc4ccc(Cl)cc4)C3)ccnc2c1CNCCOC(C)C (stereo not drawn) [Example 162, N-((7-(1-(4-Chlorobenzyl)piperidin-3-yl)-2-methylpyrazolo[1,5-a]pyrimidin-3-yl)methyl)-2-isopropoxyethan-1-amine] | 500 to 5000 | < 500
7 | COc1ccc(-c2cc3nccc(C4CCCN(Cc5ccccc5)C4)n3n2)cn1 (stereo not drawn) [Example 28, 7-(1-Benzylpiperidin-3-yl)-2-(6-methoxypyridin-3-yl)pyrazolo[1,5-a]pyrimidine] | 500 to 5000 | > 1000
8 | Brc1cc2nccc(C3CCCN(Cc4ccccc4)C3)n2n1 (stereo not drawn) [Example 1, 7-(1-Benzylpiperidin-3-yl)-2-bromopyrazolo[1,5-a]pyrimidine] | 500 to 5000 | 500 to 1000
9 | Cc1nn2c(C3CCCN(Cc4ccc(Cl)cc4)C3)ccnc2c1CN1CCOCC1 (stereo not drawn) [Example 165, 4-((7-(1-(4-Chlorobenzyl)piperidin-3-yl)-2-methylpyrazolo[1,5-a]pyrimidin-3-yl)methyl)morpholine] | > 5000 | 500 to 1000
10 | Cn1cc(-c2cc3nccc(C4CCCN(Cc5ccccc5)C4)n3n2)cn1 (stereo not drawn) [Example 25, 7-(1-Benzylpiperidin-3-yl)-2-(1-methyl-1H-pyrazol-4-yl)pyrazolo[1,5-a]pyrimidine] | > 5000 | > 1000
11 | c1ccc(CN2CCCC(c3ccnc4cc(-c5ccccn5)nn34)C2)cc1 (stereo not drawn) [Example 26, 7-(1-Benzylpiperidin-3-yl)-2-(pyridin-2-yl)pyrazolo[1,5-a]pyrimidine] | < 500 | > 1000
12 | Cc1nn2c(C3CCCN(Cc4ccc(Cl)cc4)C3)ccnc2c1-c1ccnc(OCC2CC2)c1 (stereo not drawn) [Example 137, 7-(1-(4-Chlorobenzyl)piperidin-3-yl)-3-(2-(cyclopropylmethoxy)pyridin-4-yl)-2-methylpyrazolo[1,5-a]pyrimidine] | > 5000 | > 1000
13 | Oc1ncccc1-c1cc2nccc(C3CCCN(Cc4cccc(Cl)c4)C3)n2n1 (stereo not drawn) [Example 117, 3-(7-(1-(3-Chlorobenzyl)piperidin-3-yl)pyrazolo[1,5-a]pyrimidin-2-yl)pyridin-2-ol] | > 5000 | > 1000
14 | Cc1nn2c([C@H]3CCCN(Cc4cc(F)cc(F)c4)C3)ccnc2c1CNCC1CCOCC1 [Example 241, (S)-1-(7-(1-(3,5-Difluorobenzyl)piperidin-3-yl)-2-methylpyrazolo[1,5-a]pyrimidin-3-yl)-N-((tetrahydro-2H-pyran-4-yl)methyl)methanamine] | > 5000 | < 500

Now from value to compound:

Row | Ki [1] [nM] | Ki (Human σ1 receptor) [nM] | Structure (SMILES)
15 | 500 to 5000 | > 1000 | CNCc1cc(-c2c(C)nn3c(C4CCCN(Cc5ccccc5)C4)ccnc23)ccn1 (stereo not drawn) [Example 62, 1-(4-(7-(1-Benzylpiperidin-3-yl)-2-methylpyrazolo[1,5-a]pyrimidin-3-yl)pyridin-2-yl)-N-methylmethanamine]
16 | > 5000 | > 1000 | Cc1nn2c([C@H]3CCCN([C@@H](CO)c4ccccc4)C3)ccnc2c1-c1ccncc1 [Example 108, (R)-2-((S)-3-(2-methyl-3-(pyridin-4-yl)pyrazolo[1,5-a]pyrimidin-7-yl)piperidin-1-yl)-2-phenylethanol]
17 | 500 to 5000 | 500 to 1000 | Cc1cc2nccc(C3CCCN(Cc4ccccc4)C3)n2n1 (stereo not drawn) [Example 3, 7-(1-Benzylpiperidin-3-yl)-2-methylpyrazolo[1,5-a]pyrimidine]
18 | 500 to 5000 | < 500 | Clc1nn2c([C@H]3CCCN(Cc4ccccc4)C3)ccnc2c1CNCC1CCOCC1 [Example 214]
19 | > 5000 | > 1000 | Oc1ncccc1-c1cc2nccc(C3CCCN(Cc4ccc(Cl)cc4)C3)n2n1 (stereo not drawn) [Example 115, 3-(7-(1-(4-chlorobenzyl)piperidin-3-yl)pyrazolo[1,5-a]pyrimidin-2-yl)pyridin-2-ol]
20 | 500 to 5000 | > 1000 | COc1ccncc1-c1cc2nccc(C3CCCN(Cc4ccccc4)C3)n2n1 (stereo not drawn) [Example 34, 7-(1-Benzylpiperidin-3-yl)-2-(4-methoxypyridin-3-yl)pyrazolo[1,5-a]pyrimidine]
21 | > 5000 | > 1000 | CN(CCO)c1cc2nccc(C3CCCN(Cc4ccccc4)C3)n2n1 (stereo not drawn) [Example 79, 2-((7-(1-Benzylpiperidin-3-yl)pyrazolo[1,5-a]pyrimidin-2-yl)(methyl)amino)ethanol]
22 | > 5000 | < 500 | Cc1nn2c([C@@H]3CCCN(Cc4ccc(Cl)cc4)C3)ccnc2c1CN(C)CC1CC1 [Example 227, (R)-1-(7-(1-(4-Chlorobenzyl)piperidin-3-yl)-2-methylpyrazolo[1,5-a]pyrimidin-3-yl)-N-(cyclopropylmethyl)-N-methylmethanamine]
23 | > 5000 | > 1000 | CC(=O)Nc1nn2c(C3CCCN(Cc4ccccc4)C3)ccnc2c1C (stereo not drawn) [Example 9, N-(7-(1-Benzylpiperidin-3-yl)-3-methylpyrazolo[1,5-a]pyrimidin-2-yl)acetamide]
24 | 500 to 5000 | > 1000 | Cc1nn2c(C3CCCN(Cc4ccc(Cl)cc4)C3)ccnc2c1-c1cncnc1 (stereo not drawn) [Example 130, 7-(1-(4-Chlorobenzyl)piperidin-3-yl)-2-methyl-3-(pyrimidin-5-yl)pyrazolo[1,5-a]pyrimidine]
25 | 500 to 5000 | < 500 | Cc1nn2c(C3CCCN(Cc4ccc(Cl)cc4)C3)ccnc2c1CNCc1ccn(C)n1 (stereo not drawn) [Example 151, 1-(7-(1-(4-Chlorobenzyl)piperidin-3-yl)-2-methylpyrazolo[1,5-a]pyrimidin-3-yl)-N-((1-methyl-1H-pyrazol-3-yl)methyl)methanamine]
26 | 500 to 5000 | > 1000 | COc1cc(-c2c(C)nn3c(C4CCCN(Cc5ccccc5)C4)ccnc23)ccn1 (stereo not drawn) [Example 46, 7-(1-Benzylpiperidin-3-yl)-3-(2-methoxypyridin-4-yl)-2-methylpyrazolo[1,5-a]pyrimidine]
27 | 500 to 5000 | > 1000 | Cc1nn2c(C3CCCN(Cc4ccccn4)C3)ccnc2c1-c1ccncc1 (stereo not drawn) [Example 72, 2-Methyl-7-(1-(pyridin-2-ylmethyl)piperidin-3-yl)-3-(pyridin-4-yl)pyrazolo[1,5-a]pyrimidine]
28 | < 500 | < 500 | CC(=O)N1CCC(CNCc2c(C)nn3c([C@H]4CCCN(Cc5ccc(F)c(F)c5)C4)ccnc23)CC1 [Example 247, (S)-1-(4-((((7-(1-(3,4-Difluorobenzyl)piperidin-3-yl)-2-methylpyrazolo[1,5-a]pyrimidin-3-yl)methyl)amino)methyl)piperidin-1-yl)ethan-1-one]
29 | 500 to 5000 | > 1000 | CNCc1c(C)nn2c(C3CCCN(Cc4ccccc4)C3)ccnc12 (stereo not drawn) [Example 96, 1-(7-(1-Benzylpiperidin-3-yl)-2-methylpyrazolo[1,5-a]pyrimidin-3-yl)-N-methylmethanamine]
30 | < 500 | < 500 | Clc1ccc(CN2CCCC(c3ccnc4c(CNCC5CCOCC5)c(Br)nn34)C2)cc1 (stereo not drawn) [Example 120, 1-(2-Bromo-7-(1-(4-chlorobenzyl)piperidin-3-yl)pyrazolo[1,5-a]pyrimidin-3-yl)-N-((tetrahydro-2H-pyran-4-yl)methyl)methanamine]
31 | 500 to 5000 | 500 to 1000 | Cc1nn2c(C3CCCN(Cc4ccc(Cl)cc4)C3)ccnc2c1-c1ccncc1 (stereo not drawn) [Example 121, 7-(1-(4-Chlorobenzyl)piperidin-3-yl)-2-methyl-3-(pyridin-4-yl)pyrazolo[1,5-a]pyrimidine]
32 | 500 to 5000 | < 500 | Cc1nn2c(C3CCCN(Cc4ccc(Cl)cc4)C3)ccnc2c1CN1CCC(C(N)=O)CC1 (stereo not drawn) [Example 171, 1-((7-(1-(4-Chlorobenzyl)piperidin-3-yl)-2-methylpyrazolo[1,5-a]pyrimidin-3-yl)methyl)piperidine-4-carboxamide]
33 | > 5000 | < 500 | Cc1nn2c(C3CCCN(Cc4ccc(Cl)cc4)C3)ccnc2c1N(C)C (stereo not drawn) [Example 141, 7-(1-(4-Chlorobenzyl)piperidin-3-yl)-N,N,2-trimethylpyrazolo[1,5-a]pyrimidin-3-amine]
